From patent publication US9708336B2, “Metallo-beta-lactamase inhibitors” (priority 2014, dated 2017)
pIC50: −log10 of the molar value. Structures can show the parent of a compound that is named as a salt. Where two headings read alike, the source gives them in different places.

How the values were obtained:
IMP-1 = IMP-1 (Serratia marcescens, UniProt P52699); experiment: biochemical; format: biochemical; conditions: read-out: IMP-1 IC50
[1] = tested on: Serratia marcescens expressing IMP-1 (CL5741); experiment: Antibiotic potentiation activity: synergistic concentration (MITC95) with imipenem, OD600 growth; format: cell-based; conditions: for Serratia marcescens expressing IMP-1 (CL5741) MITC95: concentration giving 95% inhibition of bacterial growth; for Serratia marcescens MITC95: Serratia marcescens expressing IMP-1 (CL5741), 95% growth inhibition
Method in brief: (§1)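 Bacteria were grown overnight on agar at 35 °C, diluted 1:100 from saline into 1.1× CAMHB, then given compound with or without imipenem (4 μg/ml in assay, optionally 1 μg/ml). Endpoint: absorbance at 22–24 h.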

[2] = tested on: Klebsiella pneumoniae expressing VIM-1 (IHMA599644); experiment: as above; format: cell-based; conditions: for Klebsiella pneumoniae expressing VIM-1 (IHMA 599644) MITC95: concentration giving 95% inhibition of bacterial growth; for Klebsiella pneumoniae MITC95: Klebsiella pneumoniae expressing VIM-1 (IHMA599644), 95% growth inhibition
Method in brief: as §1

[3] = tested on: Escherichia coli expressing NDM-1 (CLB30016); experiment: as above; format: cell-based; conditions: for Escherichia coli expressing NDM-1 (CLB 30016) MITC95: concentration giving 95% inhibition of bacterial growth; for Escherichia coli MITC95: Escherichia coli expressing NDM-1 (CLB30016), 95% growth inhibition
Method in brief: as §1

[4] = tested on: Escherichia coli expressing NDM-1 (CLB30005); experiment: as above; format: cell-based; conditions: for Escherichia coli expressing NDM-1 (CLB 30005) MITC95: concentration giving 95% inhibition of bacterial growth; for Escherichia coli MITC95: Escherichia coli expressing NDM-1 (CLB30005), 95% growth inhibition
Method in brief: as §1

VIM-1 = VIM-1 (Pseudomonas aeruginosa (strain ATCC 15692 / DSM 22644 / CIP 104116 / JCM 14847 / LMG 12228 / 1C / PRS 101 / PAO1), UniProt A0A0F7KYQ8); experiment: Enzyme activity: determination of IC50, fluorescence assay with CCF2-FA substrate (VIM-1); format: biochemical
Experimental: Enzyme Activity: Determination of IC50
The Class B enzyme activities were measured in the presence of the test inhibitor in a fluorescence assay against a commercially available substrate consisting of a cephalosporin core linking 7-hydroxycoumarin to fluorescein (CCF2-FA). The enzyme (NDM-1, IMP-1 or VIM-1) and the substrate were diluted in 100 mM KH2PO4 buffer (pH 7) containing 0.005% Tween-20 and 10 μM ZnSO4. […] The test inhibitor was dissolved in dimethylsulfoxide and diluted 1:50 in the assay, resulting in a final concentration range of 20 uM to 0.00063 uM. In a 384-well microplate, the test inhibitor was incubated with the metallo-β-lactamase enzyme and the substrate for 2 hours at 25° C. Fluorescence at 460 nm following excitation at 405 nm was measured. The IC50 value was determined from semi-logarithmic plots of enzyme inhibition versus inhibitor concentration, with a curve generated using a 4-parameter fit.

NDM-1 = NDM-1 (Klebsiella pneumoniae, UniProt C7C422); experiment: biochemical; format: biochemical; conditions: read-out: NDM-1 IC50
Sequence of NDM-1 (C7C422 whole entry, looked up, species assumed): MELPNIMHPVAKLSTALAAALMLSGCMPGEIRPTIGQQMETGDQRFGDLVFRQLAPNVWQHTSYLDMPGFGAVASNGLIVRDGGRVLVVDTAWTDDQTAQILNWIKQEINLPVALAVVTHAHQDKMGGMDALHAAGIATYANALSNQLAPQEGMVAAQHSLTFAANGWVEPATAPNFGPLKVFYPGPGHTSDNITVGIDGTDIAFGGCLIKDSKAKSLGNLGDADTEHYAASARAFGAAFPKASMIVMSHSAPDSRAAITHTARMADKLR

[5] = fluorescence assay with CCF2-FA substrate
[6] = VIM-1 IC50, fluorescence assay with CCF2-FA substrate
[7] = fluorescence assay with CCF2-FA substrate, read-out: VIM-1 IC50
[8] = IMP-1 enzyme, CCF2-FA fluorescence assay
[9] = VIM-1 enzyme, CCF2-FA fluorescence assay, read-out: VIM-1 IC50
[10] = NDM-1 enzyme, CCF2-FA fluorescence assay

Sequence of IMP-1 (P52699 whole entry, looked up): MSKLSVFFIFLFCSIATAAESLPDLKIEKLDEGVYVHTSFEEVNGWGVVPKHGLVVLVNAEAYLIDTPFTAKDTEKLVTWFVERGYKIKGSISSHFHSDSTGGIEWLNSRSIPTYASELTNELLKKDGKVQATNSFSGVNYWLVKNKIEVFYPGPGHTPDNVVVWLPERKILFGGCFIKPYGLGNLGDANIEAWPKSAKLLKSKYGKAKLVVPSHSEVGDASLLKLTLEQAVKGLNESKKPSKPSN

| Compound | pIC50 (IMP-1; [5]) | Serratia marcescens expressing IMP-1 (CL5741) MITC95 [1] | Klebsiella pneumoniae expressing VIM-1 (IHMA 599644) MITC95 [2] | Escherichia coli expressing NDM-1 (CLB 30016) MITC95 [3] | Escherichia coli expressing NDM-1 (CLB 30005) MITC95 [4] | pIC50 (VIM-1; [6]) | pIC50 (NDM-1; [5]) | pIC50 (VIM-1; [7]) | pIC50 (IMP-1; [8]) | Serratia marcescens MITC95 [1] | Klebsiella pneumoniae MITC95 [2] | Escherichia coli MITC95 [3] | Escherichia coli MITC95 [4] | pIC50 (VIM-1; [9]) | pIC50 (NDM-1; [10]) | pIC50 (VIM-1; VIM-1 IC50, VIM-1 enzyme, CCF2-FA fluorescence assay) |
| --- | --- | --- | --- | --- | --- | --- | --- | --- | --- | --- | --- | --- | --- | --- | --- | --- |
| CS(=O)(=O)Nc1ccc(-c2cccc(S(N)(=O)=O)c2-c2nn[nH]n2)cc1 [Example 82, 4′-[(methylsulfonyl)amino]-2-(2H-tetrazol-5-yl)biphenyl-3-sulfonamide] | 7.65 | 3.125 µM | 12.5 µM | 0.5859 µM | 1.953 µM | 8.11 | 8.84 |  |  |  |  |  |  |  |  |  |
| CS(=O)(=O)Nc1ccc(-c2ccnc(S(N)(=O)=O)c2-c2nn[nH]n2)cc1 [Example 206, 4-(4-(methylsulfonamido)phenyl)-3-(2H-tetrazol-5-yl)pyridine-2-sulfonamide] | 7.04 | 4.125 µM | 3.125 µM | 0.375 µM | 0.1953 µM |  | 7.94 | 7.85 |  |  |  |  |  |  |  |  |
| NS(=O)(=O)c1cccc(-c2cncnc2)c1-c1nn[nH]n1 [Example 42, 3-pyrimidin-5-yl-2-(2H-tetrazol-5-yl)benzenesulfonamide] | 4.98 | 200 µM | >200 µM | 0.7813 µM | 1.563 µM |  | 6.27 | 5.00 |  |  |  |  |  |  |  |  |
| NS(=O)(=O)c1cccc(-c2cnc3cc[nH]c3c2)c1-c1nn[nH]n1 [Example 310, 3-(1H-pyrrolo[3,2-b]pyridin-6-yl)-2-(2H-tetrazol-5-yl)benzenesulfonamide] |  |  |  |  |  |  |  |  | 6.38 | 9.375 µM | 4.167 µM | 0.02344 µM | 0.1953 µM | 7.34 | 9.00 |  |
| NS(=O)(=O)c1cccc(-c2ccc3nccn3c2)c1-c1nn[nH]n1 [Example 318, 3-(imidazo[1,2-a]pyridin-6-yl)-2-(2H-tetrazol-5-yl)benzenesulfonamide] |  |  |  |  |  |  |  |  | 6.53 | 6.25 µM | 4.688 µM | 0.0625 µM | 0.1953 µM | 7.61 | 8.67 |  |
| Nc1ccc(-c2cccc(S(N)(=O)=O)c2-c2nnn[nH]2)cn1 [Example 298, 3-(6-Aminopyridin-3-yl)-2-(1H-tetrazol-5-yl)benzene sulfonamide, TFA salt] |  |  |  |  |  |  |  |  | 6.11 | 8.333 µM | 12.5 µM | 0.04688 µM | 0.1953 µM | 6.60 | 7.14 |  |
| NS(=O)(=O)c1cccc(-c2ccc3[nH]ncc3c2)c1-c1nn[nH]n1 [Example 313, 3-(1H-indazol-5-yl)-2-(2H-tetrazol-5-yl)benzenesulfonamide] |  |  |  |  |  |  |  |  | 7.17 | 3.906 µM | 7.031 µM | 0.5859 µM | 0.4635 µM | 7.87 | 9.11 |  |
| NS(=O)(=O)c1nccc(-c2ccc(CO)cc2)c1-c1nnn[nH]1 [Example 181, 4-(4-(Hydroxymethyl)phenyl)-3-(1H-tetrazol-5-yl)pyridine-2-sulfonamide] | 6.43 | 12.5 µM | 18.75 µM | 0.6727 µM | 1.953 µM |  | 7.55 | 6.74 |  |  |  |  |  |  |  |  |
| CC(=O)Nc1ccc(-c2ccnc(S(N)(=O)=O)c2-c2nn[nH]n2)cc1 [Example 214, N-(4-(2-sulfamoyl-3-(2H-tetrazol-5-yl)pyridin-4-yl)phenyl)acetamide] | 7.01 | 3.344 µM | 37.5 µM | 0.375 µM | 0.1953 µM |  | 7.88 | 6.89 |  |  |  |  |  |  |  |  |
| Cc1ccc(-c2cccc(S(N)(=O)=O)c2-c2nnn[nH]2)cc1 [Example 1, 4′-Methyl-2-(1H-tetrazol-5-yl)-[1,1′-biphenyl]-3-sulfonamide] | 7.19 | 11.96 µM | 123.3 µM | 0.7595 µM | 1.489 µM |  | 8.42 | 7.24 |  |  |  |  |  |  |  |  |
| Nc1ccc(-c2ccnc(S(N)(=O)=O)c2-c2nn[nH]n2)cn1 [Example 215, 6-amino-3′-(2H-tetrazol-5-yl)-[3,4′-bipyridine]-2′-sulfonamide] | 5.73 | 18.75 µM | 12.5 µM | 0.25 µM | 0.1953 µM |  | 7.04 | 6.31 |  |  |  |  |  |  |  |  |
| NS(=O)(=O)c1cccc(-c2ccc(C3CCNC3)cc2)c1-c1nnn[nH]1 (stereo not shown) [Example 180, 4′-(pyrrolidin-3-yl)-2-(1H-tetrazol-5-yl)-[1,1′-biphenyl]-3-sulfonamide] | 6.95 | 3.125 µM | 4.688 µM | 0.5 µM | 0.3906 µM |  | 8.00 | 7.65 |  |  |  |  |  |  |  |  |
| NS(=O)(=O)c1cccc(-c2cnc3[nH]ccc3c2)c1-c1nn[nH]n1 [Example 312, 3-(1H-pyrrolo[2,3-b]pyridin-5-yl)-2-(2H-tetrazol-5-yl)benzenesulfonamide] |  |  |  |  |  |  |  |  | 6.97 | 5.469 µM | 3.125 µM | 0.5859 µM | 0.3906 µM | 8.19 | 9.02 |  |
| NS(=O)(=O)c1cccc(-c2cnn3ccccc23)c1-c1nn[nH]n1 [Example 98, 3-pyrazolo[1,5-a]pyridin-3-yl-2-(2H-tetrazol-5-yl)benzenesulfonamide] | 6.49 | 7.813 µM | 18.75 µM | 0.7813 µM | 0.9766 µM | 7.53 | 8.57 |  |  |  |  |  |  |  |  |  |
| NS(=O)(=O)c1cccc(-c2ccnc3ccccc23)c1-c1nn[nH]n1 [Example 319, 3-(quinolin-4-yl)-2-(2H-tetrazol-5-yl)benzenesulfonamide] |  |  |  |  |  |  |  |  | 7.21 | 3.906 µM | 3.906 µM | 3.906 µM | 0.3906 µM | 9.05 | 9.26 |  |
| Cc1ccncc1-c1cccc(S(N)(=O)=O)c1-c1nn[nH]n1 [Example 317, 3-(4-methylpyridin-3-yl)-2-(2H-tetrazol-5-yl)benzenesulfonamide] |  |  |  |  |  |  |  |  | 6.44 | 9.375 µM | 18.75 µM | 0.1875 µM | 0.125 µM |  | 8.27 | 7.34 |
